Source: patent US11566007B2, “Ras inhibitors” (Revolution Medicines, Inc., priority 2019, dated 2023)

Columns and labels:
[1] = test system: NCI-H358 cells (K-Ras G12C); test: Potency assay: pERK in NCI-H358 cells; assay type: cell-based, human; settings: Homo sapiens, NCI-H358; H358 KRAS G12C; read-out: pERK EC50
Method in brief: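 Compounds are dosed as ten 3-fold dilutions from a 10 mM DMSO stock, in duplicate, and left on cells for 4 h at 37 °C, 5% CO2. Phospho-ERK1/2 is then quantified by AlphaLISA SureFire Ultra or In-Cell Western, and IC50 is derived from a 4-parameter sigmoid against log concentration.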

[2] = target: KRAS G12D (Homo sapiens (Human), UniProt P01116+P62937, G12D); test: Ras-Raf (BRAF RBD) disruption / FRET / MOA assay, KRAS G12D; assay type: biochemical; settings: Ras-Raf disruption/FRET/MOA assay; class symbols; read-out: KRAS G12D FRET data IC50
KRAS G12D, sequence (P01116-2 other isoform, or with tags, fused parts or gaps G12D): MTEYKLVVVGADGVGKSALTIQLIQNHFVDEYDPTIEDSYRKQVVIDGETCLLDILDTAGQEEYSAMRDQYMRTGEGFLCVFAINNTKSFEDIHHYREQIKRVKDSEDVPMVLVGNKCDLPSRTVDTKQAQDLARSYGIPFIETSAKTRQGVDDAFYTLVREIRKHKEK
KRAS G12D, sequence (P62937 whole entry): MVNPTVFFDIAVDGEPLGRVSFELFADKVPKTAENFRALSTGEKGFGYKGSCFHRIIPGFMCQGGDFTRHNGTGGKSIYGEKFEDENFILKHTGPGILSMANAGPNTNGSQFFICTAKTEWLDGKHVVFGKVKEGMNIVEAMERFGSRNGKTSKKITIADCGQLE
Method in brief: (§1)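 Ras:RAF disruption was scored as a fall in TR-FRET ratio relative to DMSO. Compound ranged in 3-fold steps over 10 points from 30 μM final; incubation ran 3 h at 25° C, detection antibodies a further 1.5 h. Reported as IC50.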

[3] = target: NRAS G12C (Homo sapiens (Human), UniProt P01111+P62937, G12C); test: Ras-Raf (BRAF RBD) disruption / FRET / MOA assay, NRAS G12C; assay type: biochemical; settings: read-out: IC50* NRAS G12C FRET data
NRAS G12C, sequence (P01111 whole entry G12C): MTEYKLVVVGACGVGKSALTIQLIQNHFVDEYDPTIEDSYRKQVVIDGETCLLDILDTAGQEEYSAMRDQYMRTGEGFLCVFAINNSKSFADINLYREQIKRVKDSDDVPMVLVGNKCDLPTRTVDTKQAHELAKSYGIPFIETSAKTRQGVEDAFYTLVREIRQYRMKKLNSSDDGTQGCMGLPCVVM
NRAS G12C, sequence (P62937 whole entry): as the sequence (P62937 whole entry) above
Method in brief: as §1

[4] = target: NRAS Q61R (Homo sapiens (Human), UniProt P01111+P62937, Q61R); test: Ras-Raf (BRAF RBD) disruption / FRET / MOA assay, NRAS Q61R; assay type: biochemical; settings: NRAS Q61R; Ras-Raf disruption/FRET/MOA assay; read-out: IC50* NRAS Q61R FRET data
NRAS Q61R, sequence (P01111 whole entry Q61R): as the sequence (P01111 whole entry G12C) above, with C12G, Q61R counted along it
NRAS Q61R, sequence (P62937 whole entry): as the sequence (P62937 whole entry) above
Method in brief: (§2)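 TR-FRET disruption of nucleotide-loaded Ras binding to BRAF RBD via compound-driven ternary complex with cyclophilin A. Compound as 10-point 3-fold series from 30 μM final, 3 h at 25° C, then anti-His Eu-W1024 (10 nM) and anti-GST allophycocyanin (50 nM) for 1.5 h. IC50 from decreased FRET ratio versus DMSO.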

[5] = target: NRAS WT (Homo sapiens (Human), UniProt P01111+P62937); test: Ras-Raf (BRAF RBD) disruption / FRET / MOA assay, NRAS WT; assay type: biochemical; settings: read-out: IC50* NRAS WT FRET data
NRAS WT, sequence (P01111 whole entry): as the sequence (P01111 whole entry G12C) above, with C12G counted along it
NRAS WT, sequence (P62937 whole entry): as the sequence (P62937 whole entry) above
Method in brief: as §2

SMILES | EC50 [1] [µM] | IC50 [2] [µM] | IC50 [3] [µM] | IC50 [4] [µM] | IC50 [5] [µM]
CO[C@@H](C)c1ncccc1-c1c2c3cc(ccc3n1CC(F)(F)F)-c1nc(co1)C[C@H](NC(=O)[C@H](C(C)C)N(C)C(=O)C1(F)CCN(C(=O)C#CC(C)(C)N(C)C)CC1)C(=O)N1CCC[C@H](N1)C(=O)OCC(C)(C)C2 (atropisomer, axis not shown) [Example A578] | < 5 | 0.1 to 1 | < 0.01 | 0.1 to 1 | 0.1 to 1
CCn1c(-c2cccnc2[C@H](C)OC)c2c3cc(ccc31)-c1cccc(c1)C[C@H](NC(=O)[C@@H](CO[C@H]1CCN(C(=O)C#CC(C)(C)N(C)C)C1)C(C)C)C(=O)N1CCC[C@H](N1)C(=O)OCC(C)(C)C2 (atropisomer, axis not shown) [Example A585] | < 5 | > 10 | 0.01 to 0.1 | > 10 | 1 to 10
CCn1c(-c2cccnc2[C@H](C)OC)c2c3cc(ccc31)C1=CCCN(C1)C[C@H](NC(=O)[C@H](C(C)C)N(C)C(=O)C1(F)CCN(C(=O)C#CC(C)(C)N(C)C)CC1)C(=O)N1CCC[C@H](N1)C(=O)OCC(C)(C)C2 (atropisomer, axis not shown) [Example A591] | < 5 | 1 to 10 | < 0.01 | 0.1 to 1 | 0.1 to 1
CCn1c(-c2cccnc2[C@H](C)OC)c2c3cc(ccc31)-c1cccc(c1)C[C@H](NC(=O)[C@@H](COC1CN(C(=O)C#CC(C)(C)N(C)C(C)C)C1)C(C)C)C(=O)N1CCC[C@H](N1)C(=O)OCC(C)(C)C2 (atropisomer, axis not shown) [Example A599] | < 5 | > 10 | 0.01 to 0.1 | > 10 | > 10
CO[C@@H](C)c1ncccc1-c1c2c3cc(ccc3n1CC(F)(F)F)-c1cccc(c1)CN(NC(=O)[C@@H](COC1CN(C(=O)C#CC(C)(C)N(C)C)C1)C(C)C)C(=O)N1CCC[C@H](N1)C(=O)OCC(C)(C)C2 (atropisomer, axis not shown) [Example A601] | < 5 | > 10 | < 0.01 | 1 to 10 | 1 to 10
CO[C@@H](C)c1ncccc1-c1c2c3cc(ccc3n1CC(F)(F)F)-c1csc(n1)C[C@H](NC(=O)[C@H](C(C)C)N(C)C(=O)N1CCC3(CC1)CN(C(=O)/C=C/CF)C3)C(=O)N1CCC[C@H](N1)C(=O)OCC(C)(C)C2 (atropisomer, axis not shown) [Example A602] | < 5 | 0.1 to 1 | 0.01 to 0.1 | 0.01 to 0.1 | 0.01 to 0.1
C=CC(=O)N1CCOC2(CCN(C(=O)N(C)[C@H](C(=O)N[C@H]3Cc4nc(n(C)n4)-c4ccc5c(c4)c(c(-c4cccnc4[C@H](C)OC)n5CC(F)(F)F)CC(C)(C)COC(=O)[C@@H]4CCCN(N4)C3=O)C(C)C)CC2)C1 (atropisomer, axis not shown) [Example A606] | < 5 | 1 to 10 | 0.1 to 1 | 0.1 to 1 | 0.1 to 1
C=CC(=O)N1CC2(C1)OCCN2C(=O)N(C)[C@H](C(=O)N[C@H]1Cc2nc(cs2)-c2ccc3c(c2)c(c(-c2cccnc2[C@H](C)OC)n3CC)CC(C)(C)COC(=O)[C@@H]2CCCN(N2)C1=O)C(C)C (atropisomer, axis not shown) [Example A620] | < 5 | 1 to 10 | < 0.01 | 0.1 to 1 | 0.1 to 1
CCn1c(-c2cccnc2[C@H](C)OC)c2c3cc(ccc31)-c1cccc(n1)C[C@H](NC(=O)[C@H](C(C)C)N(C)C(=O)N1CCC13CN(C(=O)C#CC(C)(C)N(C)C)C3)C(=O)N1CCC[C@H](N1)C(=O)OCC(C)(C)C2 (atropisomer, axis not shown) [Example A623] | < 5 | 1 to 10 | 0.1 to 1 | 1 to 10 | 1 to 10
CCn1c(-c2cccnc2[C@H](C)OC)c2c3cc(ccc31)-c1csc(n1)C[C@H](NC(=O)C[C@H](C)OC1CN(C(=O)C#CC(C)(C)N(C)C)C1)C(=O)N1CCC[C@H](N1)C(=O)OCC(C)(C)C2 (atropisomer, axis not shown) [Example A637] | < 5 | > 10 | 0.01 to 0.1 | > 10 | 1 to 10
CO[C@@H](C)c1ncccc1-c1c2c3cc(ccc3n1CC(F)(F)F)N1CCO[C@@H](C[C@H](NC(=O)[C@H](C(C)C)N3CC[C@]4(CCN(C(=O)C#CC(C)(C)N(C)C)C4)C3=O)C(=O)N3CCC[C@H](N3)C(=O)OCC(C)(C)C2)C1 (atropisomer, axis not shown) [Example A642] | < 5 | > 10 | < 0.01 | > 10 | 1 to 10
CCn1c(-c2cccnc2[C@H](C)OC)c2c3cc(ccc31)N1CCO[C@@H](C[C@H](NC(=O)[C@H](C(C)C)N(C)C(=O)C3(F)CCN(C(=O)C#CC(C)(C)N(C)C)CC3)C(=O)N3CCC[C@H](N3)C(=O)OCC(C)(C)C2)C1 (atropisomer, axis not shown) [Example A647, 1-(4-(dimethylamino)-4-methylpent-2-ynoyl)-N-((2S)-1-(((2^2S,6^3S,4S)-1^1-ethyl-1^2-(2-((S)-1-methoxyethyl)pyridin-3-yl)-10,10-dimethyl-5,7-dioxo-6^1,6^2,6^3,6^4,6^5,6^6-hexahydro-1^1H-8-oxa-2(4,2)-morpholina-1(5,3)-indola-6(1,3)-pyridazinacycloundecaphane-4-yl)amino)-3-methyl-1-oxobutan-2-yl)-4-fluoro-N-methylpiperidine-4-carboxamide] | < 5 | 1 to 10 | < 0.01 | 1 to 10 | 0.1 to 1
C=CC(=O)N1CC[C@]2(C1)OCN([C@H](C(=O)N[C@H]1Cc3cccc(n3)-c3ccc4c(c3)c(c(-c3cccnc3[C@H](C)OC)n4CC)CC(C)(C)COC(=O)[C@@H]3CCCN(N3)C1=O)C(C)C)C2=O (atropisomer, axis not shown) [Example A652] | < 5 | > 10 | 0.1 to 1 | 1 to 10 | 1 to 10
CCn1c(-c2cccnc2[C@H](C)OC)c2c3cc(ccc31)-c1cc(CF)cc(c1)C[C@H](NC(=O)[C@H](C(C)C)N(C)C(=O)[C@H]1CCN(C(=O)C#CC(C)(C)N(C)C)C1)C(=O)N1CCC[C@H](N1)C(=O)OCC(C)(C)C2 (atropisomer, axis not shown) [Example A658] | < 5 | 1 to 10 | < 0.01 | 1 to 10 | 1 to 10
C=CC(=O)N1CC2(CCCN2C(=O)N(C)[C@H](C(=O)N[C@H]2Cc3nc(cs3)-c3ccc4c(c3)c(c(-c3cccnc3[C@H](C)OC)n4CC)CC(C)(C)COC(=O)[C@@H]3CCCN(N3)C2=O)C(C)C)C1 (atropisomer, axis not shown) [Example A667] | < 5 | 0.1 to 1 | < 0.01 | 0.01 to 0.1 | 0.01 to 0.1
CCn1c(-c2cccnc2[C@H](C)OC)c2c3cc(ccc31)-c1cc(CF)cc(c1)C[C@H](NC(=O)[C@H](C(C)C)N1CC[C@]3(CCN(C(=O)C#CC(C)(C)N(C)C)C3)C1=O)C(=O)N1CCC[C@H](N1)C(=O)OCC(C)(C)C2 (atropisomer, axis not shown) [Example A673] | < 5 | 1 to 10 | < 0.01 | 1 to 10 | 1 to 10
CCn1c(-c2cccnc2[C@H](C)OC)c2c3cc(ccc31)-c1cccc(c1)C[C@H](NC(=O)[C@H](C(C)C)N(C)C(=O)C1(F)CCN(C(=O)/C=C/CN(C)C)CC1)C(=O)N1CCC[C@H](N1)C(=O)OCC(C)(C)C2 (atropisomer, axis not shown) [Example A685] | < 5 | 0.1 to 1 | 0.01 to 0.1 | 0.1 to 1 | 0.1 to 1
CO[C@@H](C)c1ncccc1-c1c2c3cc(ccc3n1CC(F)(F)F)-c1cccc(c1)C[C@H](NC(=O)[C@H](C(C)C)N1CC[C@]3(CCN(C(=O)C#CC(C)(C)N(C)C)C3)C1=O)C(=O)N1CCC[C@H](N1)C(=O)OCC(C)(C)C2 (atropisomer, axis not shown) [Example A689] | < 5 | 1 to 10 | < 0.01 | 1 to 10 | 1 to 10
CCn1c(-c2cccnc2[C@H](C)OC)c2c3cc(ccc31)-c1csc(n1)C[C@H](NC(=O)[C@H](C(C)C)N(C)C(=O)N(C)C1CN(C(=O)/C=C/C3CN(C)C3)C1)C(=O)N1CCC[C@H](N1)C(=O)OCC(C)(C)C2 (atropisomer, axis not shown) [Example A690] | < 5 | 1 to 10 | 0.1 to 1 | 0.1 to 1 | 0.1 to 1
CO[C@@H](C)c1ncccc1-c1c2c3cc(ccc3n1CC(F)(F)F)-c1cccc(c1)C[C@H](NC(=O)[C@@H](COC1CN(C(=O)C#CC3(C)OCCO3)C1)C(C)C)C(=O)N1CCC[C@H](N1)C(=O)OCC(C)(C)C2 (atropisomer, axis not shown) [Example A703] | < 5 | > 10 | 0.01 to 0.1 | > 10 | 1 to 10
